The record followed here is ChEMBL document CHEMBL3352519, “Discovery of a novel pyrazole series of group X secreted phospholipase A2 inhibitor (sPLA2X) via fragment based virtual screening” (Bioorg Med Chem Lett, 2014).

Bounds are passed on as bounds.

Test [1] concerns the target T1, Group 10 secretory phospholipase A2 (Homo sapiens) (UniProt O15496).
T1 sequence (whole entry): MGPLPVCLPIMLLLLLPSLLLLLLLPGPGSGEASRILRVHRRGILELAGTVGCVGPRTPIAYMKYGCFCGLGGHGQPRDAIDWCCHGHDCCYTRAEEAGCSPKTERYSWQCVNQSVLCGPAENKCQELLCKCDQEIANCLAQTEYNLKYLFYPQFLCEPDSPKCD
Kind of test: (§1) Binding affinity to sPLA2X (unknown origin) by NMR spectroscopy based displacement assay. Particulars: concentration not given here.

In test [2] the target is T2, Group 10 secretory phospholipase A2 (Homo sapiens, UniProt O15496).
T2 sequence (O15496 whole entry): T1 sequence (whole entry)
The test is described as §1.

The target in test [3] is T2, Group 10 secretory phospholipase A2. Kind of test: Inhibition of human sPLA2X using 1,2-bis(heptanoylthio) glycerophosphocholine substrate incubated for 30 mins.
Test [4] has the same target. Kind of test: Binding affinity to sPLA2X (unknown origin).

Take `O=C(O)c1ccc(-n2ncc3ccccc3c2=O)cc1`: the inhibition – broadly, the drop in the measured response relative to a control, in per cent – in test [1] is 76%. Also, the IC50 – broadly, the concentration that inhibits the measured activity by half – in test [2] turned out to be 50000 nM.
In test [3], `NC(=O)c1cc(-c2cc(Cl)sc2Cl)[nH]n1` gave an IC50 of 398 nM.
The same measure, in the same setting: the result for `Cc1cc(-c2cc(C(N)=O)nn2C)c(C)s1` reads 851 nM.
Still for that read-out and setting: the result for `Cc1sc(C(C)C)cc1-c1cc(C(N)=O)n[nH]1` reads less than 51.3 nM; that for `Cc1sc(-c2ccccc2)cc1-c1cc(C(N)=O)n[nH]1`, 347 nM.
Turning to `Oc1nc(-c2ccccc2)c(-c2ccccc2)[nH]1`, the inhibition in test [1] came to 88%. For the same compound, the IC50 in test [2] was found to be 45000 nM.
In turn, `COc1ccc2c(C(O)C(N)=O)c(C)n(Cc3ccccc3)c2c1` (stereo not given) gave an IC50 in test [4] of 250000 nM.
Turning to `Cc1sccc1-c1cc(C(N)=O)n[nH]1`, in test [3], 631 nM corresponded to half-maximal inhibition (IC50).
`Cc1sc2ccccc2c1-c1cc(C(N)=O)n[nH]1`: the IC50 in test [3] is 174 nM.
As for `O=C(O)c1csc(-c2ccc3c(c2)CCO3)n1`, the inhibition in test [1] was 80%. In test [2], this compound had a half-maximal inhibitory concentration (IC50) of 70000 nM.
The compound `NC(=O)c1cc(-c2ccccc2Cl)[nH]n1` had an IC50 in test [3] of 9330 nM.
`Cc1ccccc1-c1cc(C(N)=O)n[nH]1` gave a half-inhibitory concentration (IC50) in test [3] of 2750 nM.
`Cc1sc(-c2ccccc2)cc1-c1cc(C(N)=O)nn1C`: the IC50 in test [3] was 1200 nM.
Turning to `Cc1sc2ccccc2c1-c1cc(C(N)=O)nn1C`, 851 nM corresponded to half-maximal inhibition in test [3] (IC50).
In the case of `Cc1cc(-c2cc(C(N)=O)n[nH]2)c(C)s1`, the inhibition in test [1] was found to be 57%. Further, the values for the concentration for half-maximal inhibition (IC50) in test [2] and in test [3] were 20000 nM and 316 nM, respectively.
